Measured values taken from patent EP2926811A1, “ARTEMETHER-CONTAINING PHARMACEUTICAL COMPOSITION, PREPARATION, AND USE THEREOF” (Kunming Pharmaceutical Corp., priority 2012, dated 2014).
Read-outs that look alike come from different tables or passages of the source.

Experiments:
Format in all cases: cell-based
[1] = system: K562 cells; test: modified MTT method, proliferation of K562 cells; conditions: Homo sapiens, read-out: IC50 on the growth of K562 cells
Experimental: (§1) Five test concentrations 2, 10, 50, 250 and 500 µM were set for each of five derivatives of artemisinin, artemether drug substance, artemisinin, dihydroartemisinin, artesunate were dissolved with dimethyl sulfoxide (DMSO), while the lyophilized powder of artemether was dissolved with normal saline (N.S.), followed by addition of a certain amount of RPMI 1640 complete culture solution to formulate a high-concentration solution, and each of the low-concentration solutions was formulated by proportionate dilution from the high-concentration solution.
(§2) The concentrations of DMSO contained in the solutions at the two relatively high concentrations 500 and 250 µM for the artemether drug substance, artemisinin, dihydroartemisinin, artesunate, used as solvent controls, were formulated with […] culture solution, at which time the test concentrations of DMSO were 1% and 0.5%. The concentrations of the excipients contained in the solutions at the two relatively high concentrations 500 and 250 µM for the preparation of lyophilized powder of artemether were used as solvent controls.
(§3) The positive control was an anti-cancer drug adriamycin (ADM), which was set at three test concentrations (final concentrations) of 0.1, 1 and 10 µg/ml. To ADM stock solution (1 mg/ml) a certain amount of PRMI 1640 complete culture solution was added, to formulate a high-concentration solution, and each of the low-concentration solutions were formulated by proportionate dilutions from the high-concentration solution.
(§4) HL-60: (human promyelocytic leukemia cell line); K562 (human chronic myelocytic leukemia cell line); HT-29 (human colon cancer cell line); PC-3 (human prostate cancer cell line); A549 (human non-small cell lung cancer cell line); MKN-28 (human gastric cancer cell line); Hep2 (human laryngeal cancer cell line), all of which were purchased from Cell Bank of Shanghai Institutes for Biological Sciences, the Chinese Academy of Sciences.
(§5) Influence of the five test samples on the proliferation of 7 human tumor cell lines was determined via a modified MTT method.
(§6) Cells in logarithmic growth phase were taken, adjusted to a certain concentration and then added into a 96 well culture plate. After culture of adherent cells for a period until adherence, the test samples were added; and for suspension cells, the test samples were added after inoculation. 5 test concentrations 2, 10, 50, 250 and 500 µM were set, with 3 parallel wells for each concentration, 10 µl/well; the solvent controls were 0.5% and 1% of isovolumetric DMSO, and the positive controls was ADM at 3 concentrations 0.1, 1 and 10 µg/ml. The samples were loaded followed by culture for a period of time in an incubator at 37°C, 5% CO2, followed by addition of MTT (5 mg/ml) at 20 µl/well, and continued to be cultured for a period of time and added with a three-combined solution [10% SDS - 5% isobutanol - 0.012 mol/L HCl (W/V/V)]. After dissolving in uniformity, it was continued to be placed in the incubator at 37°C, 5% CO2 for a period of time, and the OD value of each well was determined under a wavelength of 570 nm with a microplate reader, according to which the results were calculated.
(§7) The cellular proliferation inhibition rate was calculated in accordance with the following equation: Inhibition rate (%) = (OD valuecontrol well-OD valuesample well)/OD valuecontrol well × 100% [formula]
(§8) When the inhibition rate of DMSO on cells was more than 15%, calculation was carried out using the following equation: Inhibition rate (%) = (OD valuesolvent group-OD valueadministered well)/OD valuesolvent group × 100% [formula]
(§9) The inhibition rate was calculated by using Microsoft Excel 2003, and median inhibitory concentration IC50 was calculated with a LOGIT method, which was used as an indicator for judging the inhibitory capability.

[2] = system: MKN-28 cells; test: modified MTT method, proliferation of MKN-28 cells; conditions: Homo sapiens, MKN-28, 72 h, secondary screening
Experimental: as §1, §2, §3, §4, §5, §6, §7, §8, §9
(§10) According to the results of preliminary screening, further experiments were adjusted such that more sensitive cell lines were screened out. […]

[3] = system: Hep2 cells; test: modified MTT method, proliferation of Hep2 cells; conditions: Homo sapiens, HEp-2, 72 h, secondary screening
Experimental: as §1, §2, §3, §4, §5, §6, §7, §8, §9, §10

[4] = system: PC-3 cells; test: modified MTT method, proliferation of PC-3 cells; conditions: Homo sapiens, read-out: IC50 on the growth of PC-3 cells
Experimental: as §1, §2, §3, §4, §5, §6, §7, §8, §9

[5] = system: A549 cells; test: modified MTT method, proliferation of A549 cells; conditions: Homo sapiens, read-out: IC50 on the growth of A549 cells
Experimental: as §1, §2, §3, §4, §5, §6, §7, §8, §9

[6] = system: HT-29 cells; test: modified MTT method, proliferation of HT-29 cells; conditions: Homo sapiens
Experimental: as §1, §2, §3, §4, §5, §6, §7, §8, §9, §10

[7] = system: HL-60 cells; test: modified MTT method, proliferation of HL-60 cells; conditions: Homo sapiens, read-out: IC50 on the growth of HL-60 cells
Experimental: as §1, §2, §3, §4, §5, §6, §7, §8, §9

For `COc1cccc2c1C(=O)c1c(O)c3c(c(O)c1C2=O)C[C@@](O)(C(=O)CO)C[C@@H]3O[C@H]1C[C@H](N)[C@H](O)[C@H](C)O1` [ADM, adriamycin], the IC50 ([1]; K562, 24 h, Batch 1, 24 h) was 7090 nM, the IC50 ([1]; K562, 24 h, Batch 2, 24 h) was 5760 nM and the IC50 ([1]; K562, 24 h, Batch 3, 24 h) was 2590 nM. The IC50 ([1]; K562, 48 h, Batch 1, 48 h) was 1900 nM, the IC50 ([1]; K562, 48 h, Batch 2, 48 h) was 240 nM and the IC50 ([1]; K562, 48 h, Batch 3, 48 h) was 1690 nM. The IC50 ([1]; K562, 72 h, Batch 1, 72 h) was 170 nM, the IC50 ([1]; K562, 72 h, Batch 2, 72 h) was 9.93 nM and the IC50 ([1]; K562, 72 h, Batch 3, 72 h) was 740 nM. The IC50 ([2]; Average, read-out: IC50 on the growth of MKN-28 cells (72 h)) was 510 nM, the IC50 ([2]; Batch 1, read-out: IC50 on the growth of MKN-28 cells (72 h)) was 520 nM and the IC50 ([2]; Batch 2, read-out: IC50 on the growth of MKN-28 cells (72 h)) was 530 nM. It also gave an IC50 ([2]; Batch 3, read-out: IC50 on the growth of MKN-28 cells (72 h)) of 470 nM, an IC50 ([3]; Batch 1, read-out: IC50 on the growth of Hep2 cells (72 h)) of 410 nM and an IC50 ([3]; Batch 2, read-out: IC50 on the growth of Hep2 cells (72 h)) of 260 nM. The IC50 ([3]; Batch 3, read-out: IC50 on the growth of Hep2 cells (72 h)) was 1000 nM, the IC50 ([3]; average, read-out: IC50 on the growth of Hep2 cells (72 h)) was 510 nM and the IC50 ([4]; PC-3, 24 h, Batch 1, 24 h) was 33000 nM. For the same compound, the IC50 ([4]; PC-3, 24 h, Batch 2, 24 h) was 47800 nM, the IC50 ([4]; PC-3, 48 h, Batch 1, 48 h) was 7600 nM and the IC50 ([4]; PC-3, 48 h, Batch 2, 48 h) was 9620 nM. The IC50 ([4]; PC-3, 72 h, Batch 1, 72 h) was 3160 nM, the IC50 ([4]; PC-3, 72 h, Batch 2, 72 h) was 3740 nM and the IC50 ([5]; A549, 24 h, Batch 1, 24 h) was 38800 nM. For the same compound, the IC50 ([5]; A549, 24 h, Batch 2, 24 h) was > 100000 nM, the IC50 ([5]; A549, 48 h, Batch 1, 48 h) was 10700 nM and the IC50 ([5]; A549, 48 h, Batch 2, 48 h) was 620 nM. For the same compound, the IC50 ([5]; A549, 72 h, Batch 1, 72 h) was 760 nM, the IC50 ([5]; A549, 72 h, Batch 2, 72 h) was 190 nM and the IC50 ([6]; HT-29, 24 h, preliminary screening, Batch 1, 24 h, read-out: IC50 on the growth of HT-29 cells) was 2280 nM. The IC50 ([6]; HT-29, 24 h, preliminary screening, Batch 2, 24 h, read-out: IC50 on the growth of HT-29 cells) was 3810 nM, the IC50 ([6]; HT-29, 48 h, preliminary screening, Batch 1, 48 h, read-out: IC50 on the growth of HT-29 cells) was 280 nM and the IC50 ([6]; HT-29, 48 h, preliminary screening, Batch 2, 48 h, read-out: IC50 on the growth of HT-29 cells) was 590 nM. The IC50 ([6]; HT-29, 72 h, preliminary screening, Batch 1, 72 h, read-out: IC50 on the growth of HT-29 cells) was 57 nM, the IC50 ([6]; HT-29, 72 h, preliminary screening, Batch 2, 72 h, read-out: IC50 on the growth of HT-29 cells) was 110 nM and the IC50 ([6]; HT-29, 72 h, secondary screening, 72 h, Batch 1, read-out: IC50 on the growth of HT-29 cells (72 h)) was 110 nM. It also gave an IC50 ([6]; HT-29, 72 h, secondary screening, 72 h, Batch 2, read-out: IC50 on the growth of HT-29 cells (72 h)) of 190 nM, an IC50 ([6]; HT-29, 72 h, secondary screening, 72 h, Batch 3, read-out: IC50 on the growth of HT-29 cells (72 h)) of 120 nM and an IC50 ([6]; HT-29, 72 h, secondary screening, 72 h, average, read-out: IC50 on the growth of HT-29 cells (72 h)) of 110 nM. For the same compound, the IC50 ([7]; HL-60, 24 h, Batch 1, 24 h) was 9240 nM, the IC50 ([7]; HL-60, 24 h, Batch 2, 24 h) was 4190 nM and the IC50 ([7]; HL-60, 48 h, Batch 1, 48 h) was 1720 nM. For the same compound, the IC50 ([7]; HL-60, 48 h, Batch 2, 48 h) was 160 nM, the IC50 ([7]; HL-60, 72 h, Batch 1, 72 h) was 780 nM and the IC50 ([7]; HL-60, 72 h, Batch 2, 72 h) was 570 nM.
